These results are taken from patent US8802654B2, “Antiviral compounds” (Adenovir Pharma AB, priority 2009, dated 2014).

Molecules are shown by their SMILES.

The subject of this assay is HAdV-37 virions. Description: Binding assay: inhibition of the binding of 35S-labeled HAdV-37 virions to HCE cells. The format is cell-based. The following applies: monovalent sialic acid, stated for comparison with Table 1. As for the experimental part:
HCE (human corneal epithelial) and A549 cells were grown as previously described (Araki-Sasaki, K., Ohasi, K. Y., Sasabe, T., Hayashi, K., Watanabe, H., Tano, Y., Handa, H., 1995. “An SV-40-immortalized human corneal epithelial cell line and its characterization.” Invest. Ophtahlmol. 36, 614-621 and Amberg, N., Edlund, K., Kidd, A. H., Wadell, G., 2000a. Adenovirus type 37 uses sialic acid as a cellular receptor. J. Virol. 74, 42-48.).
HAdV37 (strain 1477) virions were produced as follows: 0.3 mL of HAdV37 inoculation material (prepared from infected A549 cells) was added to A549 cells (175 cm^2 flasks) and incubated for 2 h at 37° C. […] The specific radioactivity of labeled virions was determined to be 4×10^−6 cpm per virion. The identity of HAdV-37 was determined by digesting viral DNA with restriction enzymes and compared to established patterns for HAdV-37 prototype strain (Wadell, G., Sundell, G., de Jong, J. C., 1981. Characterization of candidate adenovirus 37 by SDS-polyacrylamide gel electrophoresis of virion polypeptides and DNA restriction site mapping. J. Med. Virol. 7, 119-125.). […]
After one additional hour, unbound virions were removed by washing, and the cell-associated radioactivity was measured with a Wallac 1409 scintillation counter (Perkin-Elmer). […]

As for `CC(=O)N[C@H]1[C@H]([C@H](O)[C@H](O)CO)OC(O)(C(=O)O)C[C@@H]1O` (stereo partly shown) [sialic acid], the IC50 was 2 to 5 mM.

The IC50 is the midpoint of a concentration-inhibition curve. A high value points to weaker potency in that assay.
